Active and inactive are the calls of the source. The calls are words filed in the database; no cut-off is given here.
How the values were obtained:
Cytochrome P450 2D6 = Cytochrome P450 2D6 (Homo sapiens, UniProt P10635); assay: Inhibition of CYP2D6 (unknown origin); format: ADME
Cytochrome P450 3A4 = Cytochrome P450 3A4 (Homo sapiens, UniProt P08684); assay: Inhibition of CYP3A4 (unknown origin) using testosterone as substrate; format: ADME
[1] = target: Free fatty acid receptor 1 (Mus musculus, UniProt Q76JU9); assay: Agonist activity at mouse GPR40 assessed as increase in intracellular calcium level; format: functional, cell-based
Free fatty acid receptor 1 (Mus musculus, UniProt Q76JU9), sequence (Q76JU9 whole entry): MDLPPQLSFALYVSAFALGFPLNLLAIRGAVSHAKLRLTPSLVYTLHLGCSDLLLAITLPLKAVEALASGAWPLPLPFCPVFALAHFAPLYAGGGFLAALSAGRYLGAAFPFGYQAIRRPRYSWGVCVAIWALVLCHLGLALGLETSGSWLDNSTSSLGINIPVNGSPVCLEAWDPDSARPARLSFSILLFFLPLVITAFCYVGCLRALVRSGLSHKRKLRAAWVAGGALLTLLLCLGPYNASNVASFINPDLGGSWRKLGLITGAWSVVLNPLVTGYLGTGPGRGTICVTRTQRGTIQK

[2] = target: T1, Free fatty acid receptor 1 (Homo sapiens, UniProt O14842); assay: Agonist activity at human GPR40 receptor expressed in CHOK1 cells assessed as induction of IP1 accumulation at 10 uM relative to TAK875; format: functional, cell-based; conditions: CHO-K1, filed as agonist
T1 sequence (O14842 whole entry): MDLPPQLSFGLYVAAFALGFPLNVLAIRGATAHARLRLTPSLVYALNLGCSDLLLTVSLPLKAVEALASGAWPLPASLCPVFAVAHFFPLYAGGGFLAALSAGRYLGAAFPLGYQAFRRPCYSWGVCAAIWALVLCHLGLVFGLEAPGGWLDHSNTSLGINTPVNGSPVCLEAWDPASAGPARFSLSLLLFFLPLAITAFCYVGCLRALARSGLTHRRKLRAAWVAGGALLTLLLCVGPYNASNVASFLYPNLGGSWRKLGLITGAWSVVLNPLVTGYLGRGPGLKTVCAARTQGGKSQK

Rattus norvegicus [3] = assay: Anti-glycemic activity in fasted Sprague-Dawley ZDF rat assessed as reduction in post-prandial hyperglycemia administered 30 mins prior to glucose challenge and measured for 120 mins by OGTT; format: functional; conditions: 2.5 h, time 150 min, read-out: MED
[4] = target: T1, Free fatty acid receptor 1; assay: Agonist activity at GPR40 in human islets assessed as induction of glucose-stimulated insulin secretion at 0.3 to 10 uM; format: tissue-based; conditions: Pancreatic islet, filed as agonist, dose 0.3-10 µM
[5] = target: T2, Peroxisome proliferator-activated receptor alpha (Homo sapiens) (UniProt Q07869); assay: Agonist activity at PPARalpha (unknown origin)
T2 sequence (whole entry): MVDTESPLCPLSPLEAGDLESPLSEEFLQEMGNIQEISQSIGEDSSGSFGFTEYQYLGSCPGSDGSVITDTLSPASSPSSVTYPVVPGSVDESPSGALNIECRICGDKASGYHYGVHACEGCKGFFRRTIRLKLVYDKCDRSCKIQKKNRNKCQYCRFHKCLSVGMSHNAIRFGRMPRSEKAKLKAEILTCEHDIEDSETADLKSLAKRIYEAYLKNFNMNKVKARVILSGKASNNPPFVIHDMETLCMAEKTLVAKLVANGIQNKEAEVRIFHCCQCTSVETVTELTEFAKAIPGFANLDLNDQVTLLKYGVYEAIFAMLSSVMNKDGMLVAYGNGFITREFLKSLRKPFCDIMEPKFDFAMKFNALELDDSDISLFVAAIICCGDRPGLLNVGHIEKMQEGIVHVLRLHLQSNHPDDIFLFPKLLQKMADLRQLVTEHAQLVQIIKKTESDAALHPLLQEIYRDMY

[6] = target: T3, Free fatty acid receptor 3 (Homo sapiens) (UniProt O14843); assay: Agonist activity at GPR41 (unknown origin)
T3 sequence (whole entry): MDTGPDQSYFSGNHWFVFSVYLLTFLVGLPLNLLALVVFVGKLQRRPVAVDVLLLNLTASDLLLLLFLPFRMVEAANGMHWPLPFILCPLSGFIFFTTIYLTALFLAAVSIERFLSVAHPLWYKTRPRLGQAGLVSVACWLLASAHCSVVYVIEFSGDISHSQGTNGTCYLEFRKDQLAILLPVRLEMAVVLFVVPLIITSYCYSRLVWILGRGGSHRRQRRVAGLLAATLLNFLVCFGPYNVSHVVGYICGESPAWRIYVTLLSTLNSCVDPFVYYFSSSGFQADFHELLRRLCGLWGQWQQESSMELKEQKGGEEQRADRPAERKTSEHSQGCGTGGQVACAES

Mus musculus [7] = assay: Induction of GLP-1 secretion in GPR40 knock-out mouse at 100 mg/kg; format: functional, organism-based
[8] = Drug metabolism in human assessed as (3S)-3-cyclopropyl-3-(3-((5-(5-fluoro-2-hydroxypyridin-4-yl)-6-isobutylpyrazin-2-yl)methoxy)phenyl)propanoic acid metabolite formation by MetID studies; format: ADME
Mus musculus [9] = assay: In vivo agonist activity at GPR40 in C57 mouse assessed as induction of GLP1 secretion at 100 mg/kg; format: functional, organism-based
Rattus norvegicus [10] = assay: Anti-glycemic activity in fasted Sprague-Dawley ZDF rat assessed as reduction in post-prandial hyperglycemia by measuring AUC(0 to 2 hrs) for blood glucose at 3 mg/kg administered daily for 8 days and measured on day 8 by OGTT; format: functional; conditions: time 8 day
Rattus norvegicus [11] = assay: Anti-glycemic activity in fasted Sprague-Dawley ZDF rat assessed as increase in insulin secretion by measuring insulin level in plasma at 3 mg/kg administered 30 mins prior to glucose challenge measured after 140 mins by OGTT; format: functional; conditions: time 170 min, 2.833 h
Rattus norvegicus [12] = assay: Anti-glycemic activity in fasted Sprague-Dawley ZDF rat assessed as increase in insulin secretion by measuring insulin level in plasma at 1 mg/kg administered 30 mins prior to glucose challenge measured after 140 mins by OGTT; format: functional; conditions: time 170 min, 2.833 h
Mus musculus [13] = species: Mus musculus; assay: Anti-glycemic activity in C57 mouse assessed as reduction in blood glucose excursion measured for 120 mins by IPGTT; format: functional, organism-based
[14] = target: Free fatty acid receptor 1 (Rattus norvegicus) (UniProt Q8K3T4); assay: Agonist activity at GPR40 receptor in rat INS1(832/13) cells assessed as induction of IP1 accumulation at 10 uM relative to TAK875; format: functional, cell-based; conditions: INS-1 832/13, filed as agonist
Free fatty acid receptor 1 (Rattus norvegicus), sequence (Q8K3T4 whole entry): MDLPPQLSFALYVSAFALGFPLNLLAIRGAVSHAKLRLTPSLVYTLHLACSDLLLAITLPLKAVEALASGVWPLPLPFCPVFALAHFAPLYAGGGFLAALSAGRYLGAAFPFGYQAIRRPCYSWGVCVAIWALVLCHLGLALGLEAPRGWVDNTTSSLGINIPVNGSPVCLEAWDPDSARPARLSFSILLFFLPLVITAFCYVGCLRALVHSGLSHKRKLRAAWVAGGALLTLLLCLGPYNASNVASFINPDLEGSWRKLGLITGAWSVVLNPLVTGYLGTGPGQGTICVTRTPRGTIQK

[15] = target: T4, Free fatty acid receptor 1 (Rattus norvegicus, UniProt Q8K3T4); assay: Agonist activity at rat GPR40 receptor expressed in CHOK1 cells assessed as induction of IP1 accumulation; format: functional, cell-based, CHO-K1
T4 sequence (Q8K3T4 whole entry): as above

[16] = target: Free fatty acid receptor 1 (Rattus norvegicus) (UniProt Q8K3T4); assay: Agonist activity at GPR40 receptor in rat INS1(832/13) cells assessed as induction of IP1 accumulation at 10 uM; format: functional, cell-based; conditions: INS-1 832/13, filed as agonist
[17] = target: Free fatty acid receptor 1 (Rattus norvegicus) (UniProt Q8K3T4); assay: Agonist activity at rat GPR40 receptor expressed in CHOK1 cells assessed as induction of IP1 accumulation at 10 uM relative to TAK875; format: functional, cell-based; conditions: CHO-K1, filed as agonist
[18] = target: T1, Free fatty acid receptor 1; assay: Agonist activity at human GPR40 receptor expressed in CHOK1 cells assessed as induction of IP1 accumulation; format: functional, cell-based, CHO-K1
[19] = target: Free fatty acid receptor 1 (Rattus norvegicus) (UniProt Q8K3T4); assay: Agonist activity at rat GPR40 receptor expressed in CHOK1 cells assessed as induction of IP1 accumulation at 10 uM; format: functional, cell-based; conditions: CHO-K1, filed as agonist
[20] = target: T1, Free fatty acid receptor 1; assay: Agonist activity at human GPR40 receptor expressed in CHOK1 cells assessed as induction of IP1 accumulation at 10 uM; format: functional, cell-based; conditions: CHO-K1, filed as agonist
[21] = Apparent permeability across basolateral to apical side in human Caco2 cells; format: ADME, cell-based; conditions: Caco-2
[22] = Cmax in cynomolgus monkey; format: ADME, Macaca fascicularis; conditions: in vivo
[23] = Half life in iv dosed cynomolgus monkey; format: ADME, organism-based, Macaca fascicularis; conditions: in vivo
[24] = Clearance in cynomolgus monkey; format: ADME, Macaca fascicularis; conditions: in vivo
[25] = Half life in iv dosed rat; format: ADME, organism-based; conditions: in vivo
[26] = Clearance in rat; format: ADME; conditions: in vivo
[27] = Oral bioavailability in dog; format: ADME, organism-based, Canis lupus familiaris; conditions: in vivo
[28] = Oral bioavailability in cynomolgus monkey; format: ADME, organism-based, Macaca fascicularis; conditions: in vivo
[29] = Hepatic clearance in dog; format: ADME, Canis lupus familiaris; conditions: in vivo
[30] = Hepatic clearance in human; format: ADME
[31] = Intrinsic clearance in dog assessed as half-life at 1 uM; format: ADME, Canis lupus familiaris
[32] = Intrinsic clearance in human assessed as half-life at 1 uM; format: ADME
[33] = Protein binding in dog plasma; format: ADME, cell-free, Canis lupus familiaris; conditions: read-out: PPB (converted)
[34] = target: T4, Free fatty acid receptor 1; assay: Agonist activity at rat GPR40 transfected in HEK293 cells assessed as increase in intracellular calcium level incubated for 1 hr by Fluo-8 dye based fluorescence analysis; format: functional, cell-based

Cytochrome P450 3A4, sequence (P08684 whole entry): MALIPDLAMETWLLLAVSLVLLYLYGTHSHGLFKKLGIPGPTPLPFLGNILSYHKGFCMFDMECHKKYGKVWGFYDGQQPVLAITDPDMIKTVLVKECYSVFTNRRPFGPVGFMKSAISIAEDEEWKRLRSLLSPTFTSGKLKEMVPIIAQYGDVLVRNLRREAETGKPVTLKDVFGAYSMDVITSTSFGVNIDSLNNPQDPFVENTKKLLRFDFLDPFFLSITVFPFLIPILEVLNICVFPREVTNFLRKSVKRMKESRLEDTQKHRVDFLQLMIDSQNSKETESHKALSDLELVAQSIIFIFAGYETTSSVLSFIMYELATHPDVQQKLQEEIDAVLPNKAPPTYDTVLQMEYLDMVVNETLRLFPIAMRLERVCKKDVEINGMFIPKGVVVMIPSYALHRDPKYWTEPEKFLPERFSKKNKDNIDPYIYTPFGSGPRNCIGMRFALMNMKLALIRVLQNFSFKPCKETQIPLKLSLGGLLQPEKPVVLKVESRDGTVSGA
Cytochrome P450 2D6, sequence (P10635 whole entry): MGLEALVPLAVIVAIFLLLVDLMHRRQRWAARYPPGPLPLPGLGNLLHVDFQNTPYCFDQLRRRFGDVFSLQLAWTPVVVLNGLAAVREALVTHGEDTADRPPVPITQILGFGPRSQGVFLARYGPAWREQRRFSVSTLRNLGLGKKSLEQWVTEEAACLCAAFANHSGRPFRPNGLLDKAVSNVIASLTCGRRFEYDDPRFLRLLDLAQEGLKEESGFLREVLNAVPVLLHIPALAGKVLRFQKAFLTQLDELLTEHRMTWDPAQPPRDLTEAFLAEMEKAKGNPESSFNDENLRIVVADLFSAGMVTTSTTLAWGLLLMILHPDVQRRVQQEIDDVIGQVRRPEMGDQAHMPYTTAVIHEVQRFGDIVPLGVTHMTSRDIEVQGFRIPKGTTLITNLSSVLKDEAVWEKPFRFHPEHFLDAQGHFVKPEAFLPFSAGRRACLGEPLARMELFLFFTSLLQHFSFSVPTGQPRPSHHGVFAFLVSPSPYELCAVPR

SMILES: COc1cc(-c2ncc(COc3cccc([C@@H](CC(=O)O)C4CC4)c3)nc2CC(C)C)c(F)cn1
- IC50 (Cytochrome P450 2D6): > 10000 nM
- IC50 (Cytochrome P450 3A4): > 10000 nM
- EC50 [1]: 38 nM
- Activity [2]: 354%
- minimal effective dose (Rattus norvegicus [3]): 3 mg/kg
- Activity [4]: Active
- Activity [5]: inactive
- Activity [6]: inactive
- Activity (Mus musculus [7]): inactive
- Drug metabolism [8]: Metabolite_Detected
- Activity (Mus musculus [9]): Active
- Activity (Rattus norvegicus [10]): 16769 ng/mL.hr
- Activity (Rattus norvegicus [11]): 5275 ng/mL
- Activity (Rattus norvegicus [12]): 1405 ng/mL
- Activity (Mus musculus [13]): Active
- Activity [14]: 208%
- EC50 [15]: 547 nM
- Activity [16]: 1170 nM
- Activity [17]: 167%
- EC50 [18]: 894 nM
- Activity [19]: 572 nM
- Activity [20]: 1040 nM
- Papp B→A [21]: 40 ×10⁻⁶ cm/s
- Cmax [22]: 8570 ng/mL
- half-life [23]: 11.2 h
- clearance [24]: 2.19 mL/min/kg
- half-life [25]: 2.71 h
- clearance [26]: 2.37 mL/min/kg
- bioavailability [27]: 33.6%
- bioavailability [28]: 99.4%
- CLH [29]: 13.5 mL/min/kg
- CLH [30]: 8.9 mL/min/kg
- half-life at 1 µM [31]: 1.38 h
- half-life at 1 µM [32]: 1.72 h
- fraction unbound [33]: 0.0045
- EC50 [34]: 17 nM
